Experimental data taken from ChEMBL document CHEMBL5335843, “Application of tobramycin benzyl ether as an antibiotic adjuvant capable of sensitizing multidrug-resistant Gram-negative bacteria to rifampicin” (2024).
Activity calls are given as the source filed them. No cut-off for these calls is given here.

Assays:
Pseudomonas aeruginosa [1] = assay: Antibacterial activity against multi-drug resistant Pseudomonas aeruginosa clinical isolate 114228 assessed as inhibition of bacterial growth incubated for 18 hrs by two fold broth microdilution assay; format: functional
Pseudomonas aeruginosa [2] = assay: Antibacterial activity against multi-drug resistant Pseudomonas aeruginosa clinical isolate PA262 assessed as inhibition of bacterial growth incubated for 18 hrs by two fold broth microdilution assay; format: functional
Acinetobacter baumannii [3] = assay: Antibacterial activity against multi-drug resistant Acinetobacter baumannii clinical isolate LAC-4 assessed as inhibition of bacterial growth incubated for 18 hrs by two fold broth microdilution assay; format: functional
Pseudomonas aeruginosa [4] = assay: Antibiotic adjuvant activity against multi-drug resistant Pseudomonas aeruginosa clinical isolate 101243 assessed as rifampicin MIC incubated for 18 hrs in presence of Rifampicin by two fold broth microdilution checkerboard assay; format: functional
Escherichia coli [5] = assay: Antibiotic adjuvant activity against multi-drug resistant Escherichia coli clinical isolate 94393 assessed as rifampicin MIC incubated for 18 hrs in presence of Rifampicin by two fold broth microdilution checkerboard assay; format: functional
Escherichia coli [6] = assay: Antibiotic adjuvant activity against multi-drug resistant Escherichia coli clinical isolate 94474 assessed as rifampicin MIC incubated for 18 hrs in presence of Rifampicin by two fold broth microdilution checkerboard assay; format: functional
Acinetobacter baumannii [7] = assay: Antibiotic adjuvant activity against multi-drug resistant Acinetobacter baumannii clinical isolate AB031 assessed as rifampicin MIC incubated for 18 hrs in presence of Rifampicin by two fold broth microdilution checkerboard assay; format: functional
Acinetobacter baumannii [8] = assay: Antibiotic adjuvant activity against multi-drug resistant Acinetobacter baumannii clinical isolate AB031 assessed as inhibition of bacterial growth incubated for 18 hrs in presence of Rifampicin by two fold broth microdilution checkerboard assay; format: functional
Acinetobacter baumannii [9] = assay: Antibiotic adjuvant activity against multi-drug resistant Acinetobacter baumannii clinical isolate 110193 assessed as inhibition of bacterial growth incubated for 18 hrs in presence of Rifampicin by two fold broth microdilution checkerboard assay; format: functional
Acinetobacter baumannii [10] = assay: Antibiotic adjuvant activity against multi-drug resistant Acinetobacter baumannii clinical isolate LAC-4 assessed as inhibition of bacterial growth incubated for 18 hrs in presence of Rifampicin by two fold broth microdilution checkerboard assay; format: functional
Escherichia coli [11] = assay: Antibiotic adjuvant activity against multi-drug resistant Escherichia coli clinical isolate 94393 assessed as fractional inhibitory concentration index incubated for 18 hrs in presence of Rifampicin by two fold broth microdilution checkerboard assay; format: functional
Acinetobacter baumannii [12] = assay: Antibiotic adjuvant activity against multi-drug resistant Acinetobacter baumannii clinical isolate 110193 assessed as fractional inhibitory concentration index incubated for 18 hrs in presence of Rifampicin by two fold broth microdilution checkerboard assay; format: functional
Acinetobacter baumannii [13] = assay: Antibiotic adjuvant activity against multi-drug resistant Acinetobacter baumannii clinical isolate LAC-4 assessed as fractional inhibitory concentration index incubated for 18 hrs in presence of Rifampicin by two fold broth microdilution checkerboard assay; format: functional
Pseudomonas aeruginosa [14] = assay: Antibacterial activity against multi-drug resistant Pseudomonas aeruginosa clinical isolate PA101243 assessed as inhibition of bacterial growth incubated for 18 hrs by two fold broth microdilution assay; format: functional
Escherichia coli [15] = assay: Antibacterial activity against multi-drug resistant Escherichia coli clinical isolate EC94474 assessed as inhibition of bacterial growth incubated for 18 hrs by two fold broth microdilution assay; format: functional
Pseudomonas aeruginosa [16] = assay: Antibiotic adjuvant activity against multi-drug resistant Pseudomonas aeruginosa clinical isolate PA101243 assessed as minocycline MIC incubated for 18 hrs in presence of minocycline by two fold broth microdilution checkerboard assay; format: functional
Pseudomonas aeruginosa [17] = assay: Antibiotic adjuvant activity against multi-drug resistant Pseudomonas aeruginosa clinical isolate PA259 assessed as minocycline MIC incubated for 18 hrs in presence of minocycline by two fold broth microdilution checkerboard assay; format: functional
Pseudomonas aeruginosa [18] = assay: Antibiotic adjuvant activity against multi-drug resistant Pseudomonas aeruginosa clinical isolate PA259 assessed as inhibition of bacterial growth incubated for 18 hrs in presence of minocycline by two fold broth microdilution checkerboard assay; format: functional
Pseudomonas aeruginosa [19] = assay: Antibiotic adjuvant activity against multi-drug resistant Pseudomonas aeruginosa clinical isolate PA262 assessed as inhibition of bacterial growth incubated for 18 hrs in presence of minocycline by two fold broth microdilution checkerboard assay; format: functional
Escherichia coli [20] = assay: Antibiotic adjuvant activity against multi-drug resistant Escherichia coli clinical isolate EC107115 assessed as inhibition of bacterial growth incubated for 18 hrs in presence of minocycline by two fold broth microdilution checkerboard assay; format: functional
Pseudomonas aeruginosa [21] = assay: Antibiotic adjuvant activity against multi-drug resistant Pseudomonas aeruginosa clinical isolate PA262 assessed as fold potentiation incubated for 18 hrs in presence of minocycline by two fold broth microdilution checkerboard assay; format: functional
Pseudomonas aeruginosa [22] = assay: Antibiotic adjuvant activity against multi-drug resistant Pseudomonas aeruginosa clinical isolate PA101243 assessed as fractional inhibitory concentration index incubated for 18 hrs in presence of minocycline by two fold broth microdilution checkerboard assay; format: functional
Escherichia coli [23] = assay: Antibiotic adjuvant activity against multi-drug resistant Escherichia coli clinical isolate EC94474 assessed as fractional inhibitory concentration index incubated for 18 hrs in presence of minocycline by two fold broth microdilution checkerboard assay; format: functional
Pseudomonas aeruginosa [24] = assay: Antibiotic adjuvant activity against multi-drug resistant Pseudomonas aeruginosa clinical isolate PA264 assessed as inhibition of bacterial growth incubated for 18 hrs in presence of doxycycline by two fold broth microdilution checkerboard assay; format: functional
Enterococcus faecium = assay: Antibacterial activity against Enterococcus faecium 114278 assessed as inhibition of bacterial growth incubated for 18 hrs by two fold broth microdilution assay; format: functional
Staphylococcus aureus [25] = assay: Antibiotic adjuvant activity against methicilin-resistant Staphylococcus aureus assessed as rifampicin MIC incubated for 18 hrs in presence of rifampicin by two fold broth microdilution checkerboard assay; format: functional
Staphylococcus aureus [26] = assay: Antibiotic adjuvant activity against methicilin-resistant Staphylococcus aureus assessed as inhibition of bacterial growth incubated for 18 hrs in presence of rifampicin by two fold broth microdilution checkerboard assay; format: functional
Pseudomonas aeruginosa [27] = assay: Antibiotic adjuvant activity against Pseudomonas aeruginosa PAO1 assessed as fold potentiation incubated for 18 hrs in presence of Rifampicin by two fold broth microdilution checkerboard assay; format: functional
Escherichia coli [28] = assay: Antibiotic adjuvant activity against Escherichia coli ATCC 25922 assessed as fold potentiation incubated for 18 hrs in presence of Rifampicin by two fold broth microdilution checkerboard assay; format: functional
Escherichia coli [29] = assay: Antibiotic adjuvant activity against Escherichia coli ATCC 25922 assessed as fold potentiation incubated for 18 hrs in presence of novobiocin by two fold broth microdilution checkerboard assay; format: functional
Escherichia coli [30] = assay: Antibiotic adjuvant activity against Escherichia coli ATCC 25922 assessed as fold potentiation incubated for 18 hrs in presence of vancomycin by two fold broth microdilution checkerboard assay; format: functional
Cell membrane = assay: Induction of outer membrane permeabilization in Escherichia coli ATCC 25922 assessed as increase fluorescence intensity by measuring NPN uptake factor by fluorescence based analysis; format: subcellular
Pseudomonas aeruginosa [31] = assay: Antibiotic adjuvant activity against Pseudomonas aeruginosa PAO1 assessed as fold increase in MIC incubated for 18 hrs in presence of rifampicin and CAMHB Mg2+ media by two fold broth microdilution checkerboard assay; format: functional
Acinetobacter baumannii [32] = assay: Antibiotic adjuvant activity against Acinetobacter baumannii ATCC 17978 at 8 to 11 ug/ml incubated for 18 hrs in presence of rifampicin and 10 % FBS media by two fold broth microdilution checkerboard assay; format: functional, organism-based; conditions: dose 8-11 µg/ml
Escherichia coli [33] = assay: Antibiotic adjuvant activity against Escherichia coli ATCC 25922 at 8 to 11 ug/ml incubated for 18 hrs in presence of rifampicin and 25 % FBS media by two fold broth microdilution checkerboard assay; format: functional, organism-based; conditions: dose 8-11 µg/ml
Enterobacterales = assay: Antibiotic adjuvant activity against Enterobacterales assessed as minocycline MIC incubated for 18 hrs in presence of minocycline by two fold broth microdilution checkerboard assay; format: functional

Cl.NC[C@H]1O[C@H](O[C@H]2[C@H](OCc3ccccc3)[C@@H](O[C@H]3O[C@H](COCc4ccccc4)[C@@H](OCc4ccccc4)[C@H](N)[C@H]3OCc3ccccc3)[C@H](N)C[C@@H]2N)[C@H](N)C[C@@H]1OCc1ccccc1
MIC (Pseudomonas aeruginosa [1]): 64 µg/mL | MIC (Pseudomonas aeruginosa [2]): 128 µg/mL | MIC (Acinetobacter baumannii [3]): 16 µg/mL | MIC (Pseudomonas aeruginosa [4]): 0.004 µg/mL | MIC (Escherichia coli [5]): 32 µg/mL | MIC (Escherichia coli [6]): 0.031 µg/mL | MIC (Acinetobacter baumannii [7]): 0.002 µg/mL | MIC (Acinetobacter baumannii [8]): 8 µg/mL | MIC (Acinetobacter baumannii [9]): 8 µg/mL | MIC (Acinetobacter baumannii [10]): 4 µg/mL | fractional inhibitory concentration index (FICI) (Escherichia coli [11]): 1.25 | fractional inhibitory concentration index (FICI) (Acinetobacter baumannii [12]): 0.126 | fractional inhibitory concentration index (FICI) (Acinetobacter baumannii [13]): 0.251 | MIC (Pseudomonas aeruginosa [14]): 64 µg/mL | MIC (Escherichia coli [15]): 32 µg/mL | MIC (Pseudomonas aeruginosa [16]): 64 µg/mL | MIC (Pseudomonas aeruginosa [17]): 128 µg/mL | MIC (Pseudomonas aeruginosa [18]): 8 µg/mL | MIC (Pseudomonas aeruginosa [19]): 8 µg/mL | MIC (Escherichia coli [20]): 8 µg/mL | fold change (FC) (Pseudomonas aeruginosa [21]): 1 | fractional inhibitory concentration index (FICI) (Pseudomonas aeruginosa [22]): 1.063 | fractional inhibitory concentration index (FICI) (Escherichia coli [23]): 0.094 | MIC (Pseudomonas aeruginosa [24]): 8 µg/mL | MIC (Enterococcus faecium): 8 µg/mL | MIC (Staphylococcus aureus [25]): 256 µg/mL | MIC (Staphylococcus aureus [26]): 4 µg/mL | fold change (FC) (Pseudomonas aeruginosa [27]): 8 | fold change (FC) (Escherichia coli [28]): 8 | fold change (FC) (Escherichia coli [29]): 2048 | fold change (FC) (Escherichia coli [30]): 4 | Activity (Cell membrane): Dose-Dependent Effect | fold change (FC) (Pseudomonas aeruginosa [31]): >=2 | Activity (Acinetobacter baumannii [32]): inactive | Activity (Escherichia coli [33]): inactive | MIC (Enterobacterales): ≤ 4 µg/mL
